In brackets after ≈: the same amount, converted by molar mass.
Legend:
[1] = system: Aspergillus fumigatus 7544; assay: Broth microdilution MIC (CLSI M27-A3/M60); type: cell-based; conditions: MIC80 (≥80% growth inhibition), 30 °C, 48 h; for MIC: Aspergillus fumigatus, 7544, read-out: MIC, A. fum 7544
Protocol: (§1) According to the Clinical Laboratory Standards Institute (CLSI, M27-A3 and M60) protocols[10]^,[11], the target compounds were evaluated for their in vitro antifungal activity by the broth microdilution method. The fungi strains used in this study were obtained from the American Type Culture Collection (ATCC) and Changhai Hospital (Shanghai, China). […] Fluconazole (FCZ) and ketoconazole (KCZ) were used as positive controls.
(§2) All fungal strains used in this study were obtained from the American Type Culture Collection (ATCC) and Changhai Hospital (Shanghai, China). All strains were cultivated by shaking (200 rpm) at 30 °C in YEPD medium (1% yeast extract, 2% peptone, and 2% dextrose) to an exponential growth stage.
(§3) Fungal cells at the exponential growth stage were collected and resuspended in RPMI 1640 medium, then diluted to 1 × 10^3 cells/mL. The suspension of fungal cells was inoculated into 96-well plates. Antifungal compounds were serially added and diluted in a 2-fold series to a final concentration range of 64.0–0.125 µg/mL. RPMI 1640 medium with no fungal cells served as a blank control. The fungal suspensions containing DMSO and FCZ served as the negative control and the positive control, respectively. C. albicans, C. glabrata, C. parapsilosis, C. tropicalis, and C. auris cells were incubated at 30 °C for 24 h, C. neoformans and A. fumigatus cells were incubated at 30 °C for 48 h. The optical density (OD630) at 630 nm was measured by a spectrophotometer, which was used to calculate the MIC80 values of each compound.

Candida albicans SC5314 = assay: Broth microdilution MIC (CLSI M27-A3/M60); type: cell-based; conditions: MIC80 (≥80% growth inhibition), 30 °C, 24 h; for MIC: Candida albicans, SC5314, read-out: MIC, C. alb SC5314
Protocol: as §1, §2, §3

Candida glabrata 537 = assay: Broth microdilution MIC (CLSI M27-A3/M60); type: cell-based; conditions: MIC80 (≥80% growth inhibition), 30 °C, 24 h; for MIC: Nakaseomyces glabratus, 537, read-out: MIC, C. gla 537
Protocol: as §1, §2, §3

[2] = system: Candida parapsilosis 22-20; assay: Broth microdilution MIC (CLSI M27-A3/M60); type: cell-based; conditions: Lodderomyces parapsilosis, 2220; MIC80 (≥80% growth inhibition), 30 °C, 24 h; read-out: MIC, C. par 22-20
Protocol: as §1, §2, §3

Candida tropicalis 8915 = assay: Broth microdilution MIC (CLSI M27-A3/M60); type: cell-based; conditions: MIC80 (≥80% growth inhibition), 30 °C, 24 h; for MIC: Candida tropicalis, 8915, read-out: MIC, C. tro 8915
Protocol: as §1, §2, §3

[3] = system: Cryptococcus neoformans 22-21; assay: Broth microdilution MIC (CLSI M27-A3/M60); type: cell-based; conditions: 2221, MIC80 (≥80% growth inhibition), 30 °C, 48 h, read-out: MIC, C. neo 22-21
Protocol: as §1, §2, §3

in vitro = conditions: rabbit
[4] = system: FCZ-resistant C. albicans 901; assay: MIC against FCZ-resistant strains, microdilution; type: cell-based, Candida albicans; conditions: FCZ-resistant isolate, 30 °C, 24 h; for MIC: Candida albicans, read-out: MIC, C.alb 901
Text: (§4) The alarming impact of drug resistance amongst Candida spp. is an emerging problem globally. Rising rates of azole-resistant Candida spp. are associated with an increase in treatment failures. Candida auris is characterised by a high level of multi-drug resistance. It has been reported in more than 45 countries and has caused serious hospital outbreaks with crude mortality rates as high as 72%[13]^,[14].
as §2
as §3, with “The fungal suspensions containing DMSO and FCZ served as the negative control and the positive control, respectively.” left out

C. auris 918 = assay: MIC against FCZ-resistant strains, microdilution; type: cell-based, Candida auris; conditions: Candidozyma auris, FCZ-resistant isolate, 30 °C, 24 h
Text: as §4, §2
as §3, with “The fungal suspensions containing DMSO and FCZ served as the negative control and the positive control, respectively.” left out

C. auris 919 = assay: MIC against FCZ-resistant strains, microdilution; type: cell-based, Candida auris; conditions: Candidozyma auris, FCZ-resistant isolate, 30 °C, 24 h
Text: as §4, §2
as §3, with “The fungal suspensions containing DMSO and FCZ served as the negative control and the positive control, respectively.” left out

C. albicans SC5314 = assay: GC-MS analysis of sterol composition; type: cell-based, Candida albicans; conditions: 8 µg/mL, 8 h; for ergosterol content of the fungal cells (of total sterols): control 89.85%
Protocol: As the major fungal sterol, ergosterol accounted for 89.85% of the total sterols in the control group, zymosterol accounted for 8.80%, in addition to several other sterols. […] In contrast, the content of other sterols in the bypass pathway increased.
Overnight cultured C. albicans SC5314 fungal cells were collected and diluted to 5 × 10^6 cells/mL in YEPD medium. […] The fungal cells were cultured by shaking (200 rpm) at 30 °C. After incubation for 8 h, the fungal suspension was centrifuged (3000 rpm, 1 min), harvested and washed twice with distilled water carefully. The saponifying agent (6 ml of 15% NaOH resolved in 90% ethanol) was added to the precipitate. After 1 h of saponification at 80 °C, sterols were extracted with hexane (3 × 5 ml). The combined extracts were evaporated in a water bath and washed once with water. The residue was dried in a 60 °C water bath to obtain the total sterols. Finally, the total sterol was analysed by GC-MS and the structures of each sterol content were identified and compared with the National Institute of Standards and Technology (NIST) database.

Row | SMILES | MIC [1] [µg/mL] | MIC (Candida albicans SC5314) [µg/mL] | MIC (Candida glabrata 537) [µg/mL] | MIC [2] [µg/mL] | MIC (Candida tropicalis 8915) [µg/mL] | MIC [3] [µg/mL] | MIC [4] [µg/mL] | MIC (C. auris 918) [µg/mL] | MIC (C. auris 919) [µg/mL] | other results
1 | Cc1ccc(CCC(=O)N[C@H](C)[C@](O)(Cn2cncn2)c2ccc(F)cc2F)nc1 [A21] | > 64 | 2 (≈ 4.81 µM) | 2 (≈ 4.81 µM) | 4 (≈ 9.63 µM) | > 64 | 4 (≈ 9.63 µM) |  |  |  | 
2 | C[C@@H]1[C@H](O)[C@@H](C)/C=C/C=C/C=C/C=C/C=C/C=C/C=C/[C@H](O[C@@H]2O[C@H](C)[C@@H](O)[C@H](N)[C@@H]2O)C[C@@H]2O[C@](O)(C[C@@H](O)C[C@@H](O)[C@H](O)CC[C@@H](O)C[C@@H](O)CC(=O)O[C@H]1C)C[C@H](O)[C@H]2C(=O)O [AmB, amphotericin B] |  |  |  |  |  |  |  |  |  | hemolysis at 1 h, 16 µg/mL (in vitro): 4.87%; hemolysis at 1 h, 32 µg/mL (in vitro): 57.7%; hemolysis at 1 h, 64 µg/mL (in vitro): 100%
3 | C[C@@H](NC(=O)CCc1ccc(Cl)c(F)c1)[C@](O)(Cn1cncn1)c1ccc(F)cc1F [A15] | 32 (≈ 70.7 µM) | ≤ 0.125 | ≤ 0.125 | 0.5 (≈ 1.1 µM) | 8 (≈ 17.7 µM) | 0.5 (≈ 1.1 µM) | 8 (≈ 17.7 µM) | 64 (≈ 141 µM) | 64 (≈ 141 µM) | 
4 | C[C@@H](NC(=O)CCc1ccc(Cl)c(Cl)c1)[C@](O)(Cn1cncn1)c1ccc(F)cc1F [A16] | 64 (≈ 136 µM) | ≤ 0.125 | ≤ 0.125 | 0.5 (≈ 1.07 µM) | 8 (≈ 17 µM) | ≤ 0.125 | 2 (≈ 4.26 µM) | > 64 | > 64 | 
5 | OC(Cn1cncn1)(Cn1cncn1)c1ccc(F)cc1F [FCZ, fluconazole, reference compound] | > 64 | 0.5 (≈ 1.63 µM) | 1 (≈ 3.27 µM) | 4 (≈ 13.1 µM) | > 64 | 1 (≈ 3.27 µM) | > 256 | > 256 | > 256 | MIC, A. fum 7544 [1]: > 64.0 µg/mL; MIC, C. tro 8915 (Candida tropicalis 8915): > 64.0 µg/mL; ergosterol content of the fungal cells (of total sterols) (C. albicans SC5314): 6.08%; hemolysis at 1 h, 16 µg/mL (in vitro): 1.3%
6 | CC(=O)c1ccc(CCC(=O)N[C@H](C)[C@](O)(Cn2cncn2)c2ccc(F)cc2F)cc1 [A11] | > 64 | 2 (≈ 4.52 µM) | 1 (≈ 2.26 µM) | 4 (≈ 9.04 µM) | > 64 | 1 (≈ 2.26 µM) |  |  |  | 
7 | Cc1cccnc1CCC(=O)N[C@H](C)[C@](O)(Cn1cncn1)c1ccc(F)cc1F [A19] | > 64 | 1 (≈ 2.41 µM) | 1 (≈ 2.41 µM) | 2 (≈ 4.81 µM) | > 64 | 2 (≈ 4.81 µM) |  |  |  | 
8 | C[C@@H](NC(=O)CCc1ccc(F)c(F)c1)[C@](O)(Cn1cncn1)c1ccc(F)cc1F [A14] | 64 (≈ 147 µM) | ≤ 0.125 | ≤ 0.125 | 1 (≈ 2.29 µM) | 64 (≈ 147 µM) | 1 (≈ 2.29 µM) | 4 (≈ 9.17 µM) | > 64 | > 64 | 
9 | C[C@@H](NC(=O)CCc1ccccc1)[C@](O)(Cn1cncn1)c1ccc(F)cc1F [A1] | 64 (≈ 160 µM) | ≤ 0.125 | ≤ 0.125 | 0.5 (≈ 1.25 µM) | > 64 | 0.25 (≈ 0.624 µM) | 1 (≈ 2.5 µM) | 64 (≈ 160 µM) | 32 (≈ 79.9 µM) | MIC, C. alb SC5314 (Candida albicans SC5314): ≤ 0.125 µg/mL; MIC, C. gla 537 (Candida glabrata 537): ≤ 0.125 µg/mL; MIC, C.alb 901 [4]: 1.0 µg/mL (≈ 2.5 µM); proportion of 14α-methylfecosterol (of total sterols) (C. albicans SC5314): 31.11%; proportion of eburicol (of total sterols) (C. albicans SC5314): 19.29%; proportion of lanosterol (of total sterols) (C. albicans SC5314): 23.42%; proportion of obtusifoliol (of total sterols) (C. albicans SC5314): 20.09%; ergosterol content of the fungal cells (of total sterols) (C. albicans SC5314): 5.44%; hemolysis at 1 h, 16 µg/mL (in vitro): 0.95%
10 | Cc1ccncc1CCC(=O)N[C@H](C)[C@](O)(Cn1cncn1)c1ccc(F)cc1F [A23] | > 64 | 64 (≈ 154 µM) | 1 (≈ 2.41 µM) | 16 (≈ 38.5 µM) | > 64 | 8 (≈ 19.3 µM) |  |  |  | 
11 | Cc1ccnc(CCC(=O)N[C@H](C)[C@](O)(Cn2cncn2)c2ccc(F)cc2F)c1 [A20] | > 64 | 1 (≈ 2.41 µM) | 2 (≈ 4.81 µM) | 4 (≈ 9.63 µM) | > 64 | 4 (≈ 9.63 µM) |  |  |  | 
12 | C[C@@H](NC(=O)CCc1cc(F)cc(F)c1)[C@](O)(Cn1cncn1)c1ccc(F)cc1F [A17] | 32 (≈ 73.3 µM) | ≤ 0.125 | ≤ 0.125 | 0.5 (≈ 1.15 µM) | 16 (≈ 36.7 µM) | 0.5 (≈ 1.15 µM) | 4 (≈ 9.17 µM) | > 64 | > 64 | 
13 | Cc1cncc(CCC(=O)N[C@H](C)[C@](O)(Cn2cncn2)c2ccc(F)cc2F)c1 [A24] | > 64 | 16 (≈ 38.5 µM) | 4 (≈ 9.63 µM) | 32 (≈ 77 µM) | > 64 | 32 (≈ 77 µM) |  |  |  | 
14 | Cc1ccc(CCC(=O)N[C@H](C)[C@](O)(Cn2cncn2)c2ccc(F)cc2F)cn1 [A25] | > 64 | 16 (≈ 38.5 µM) | 2 (≈ 4.81 µM) | 64 (≈ 154 µM) | > 64 | 16 (≈ 38.5 µM) |  |  |  | 
15 | C[C@@H](NC(=O)CCc1ccc(C(C)(C)C)cc1)[C@](O)(Cn1cncn1)c1ccc(F)cc1F [A9] | 32 (≈ 70.1 µM) | ≤ 0.125 | ≤ 0.125 | 0.25 (≈ 0.548 µM) | > 64 | ≤ 0.125 | 32 (≈ 70.1 µM) | > 64 | 32 (≈ 70.1 µM) | MIC, C. alb SC5314 (Candida albicans SC5314): ≤ 0.125 µg/mL; ergosterol content of the fungal cells (of total sterols) (C. albicans SC5314): 5.17%; hemolysis at 1 h, 16 µg/mL (in vitro): 0.78%
16 | CC(=O)N1CCN(c2ccc(OCC3COC(Cn4ccnc4)(c4ccc(Cl)cc4Cl)O3)cc2)CC1 (stereo not shown) [KCZ, ketoconazole, reference compound] | 4 (≈ 7.53 µM) | 4 (≈ 7.53 µM) | 1 (≈ 1.88 µM) | 0.5 (≈ 0.941 µM) | 16 (≈ 30.1 µM) | 0.125 (≈ 0.235 µM) |  |  |  | 

Reference: publication PMC10413920, “Design, synthesis and in vitro biological studies of novel triazoles with potent and broad-spectrum antifungal activity” (Journal of Enzyme Inhibition and Medicinal Chemistry, 2023)
